Measured values published in US20150045407A1, “MTK1-ACTIN INHIBITORS AND METHODS OF USE” (THE ARIZONA BOARD OF REGENTS ON BEHALF OF THE UNIVERSITY OF …, priority 2013, published 2015).
“Also recorded” adds a separate entry of the source.

Experiments:
PI3K = conditions: Smirnova et al., 2012; cited from earlier work
MCF-7 cells [1] = assay: HRG-induced extracellular acidification, media pH measurement; format: cell-based, human
Procedure: (§1) MCF-7 and T-47D cells were seeded in complete growth media at a density of 0.4×10^6 cells per well in 12-well plates (VWR #62406-165) for proliferation assays and 0.7×10^6 cells per well for pH measurements. Cells were allowed to adhere for 16 hours, followed by 4 hour serum starvation in DMEM, 1% penicillin-streptomycin without fetal bovine serum. […] Each condition was performed in triplicate and repeated a minimum of 3 times. After 24 hours, the cells were counted using a TC-10 Bio-Rad automated cell counter and the media pH was recorded using a pH meter probe. Data shown for each condition represents n=3. A two sided student t-test with standard deviation were used to perform statistical analyses on proliferation rates and media pH measurements. Statistical significance was determined by a p-value ≦0.05.
(§2) MCF-7 cells were seeded (onto 10 cm cell culture plates, VWR #353003) at a density of 5.0×10^6 cells and allowed to adhere for 16 hours. […] The cells were counted and seeded onto 12 well plates (VWR #62406-165) at a density of 0.7×10^6 cells per well for pH measurements and scratch assays or at density of 0.4×10^6 cells per well for proliferation assays. MTK1 knockdown efficiency was determined by immunoblot analysis using 150 μg whole cell lysate at 120 hours post-secondary transfection. […]

MCF-7 cells [2] = assay: Cell proliferation and viability (automated cell count, trypan blue); format: cell-based, human; conditions: 10 nM HRG or 3.3 nM EGF, 24 hours
Procedure: as §1, §2

MTK1/HER3 association = assay: HRG-induced MTK1/HER3 association, MTK1 immunoprecipitation and immunoblot in MCF-7 cells; conditions: then 10 nM HRG 12 minutes; for Effect on HRG-induced MTK1/HER3 association: MCF-7 cells pre-treated with 0, 50, 100 or 200 nM lapatinib for 1 hour, pTyr immunoblot of MTK1 IP
Procedure: (§3) MCF-7 cells were maintained in the same media as T-47D cells and supplemented additionally with 10 μg/ml insulin. Prior to experimental procedures, cells were cultured in DMEM supplemented only with 1% penicillin-streptomycin for 16 hrs. […] Cells were treated with 1 μg/ml Cytochalasin D for 30 minutes prior to addition of HRG.
(§4) Images were obtained using ChemiDoc™ XRS+ (BIO-RAD) and quantification was performed with Image Lab Software. […] All commercial antibodies were used according to manufacturer recommendations.
The cells were then washed twice with ice-cold 1× phosphate buffered saline pH 7.4. […] Immune complexes recovered using protein A-Sepharose beads (Sigma Cat# P3391) were washed twice with ice-cold lysis buffer and denatured with Laemmli sample buffer.

HER3 = HER3 phosphorylation in HRG-stimulated MCF-7 cell lysates (immunoblot); conditions: for Effect on phosphorylation (activation) of HER3: MCF-7 cell lysates, 1 μg/ml cytochalasin D 30 minutes, then 10 nM HRG 12 minutes
Procedure: as §3, §4

MCF-7 cells [3] = assay: Scratch assay, HRG-induced cell migration; format: cell-based, human; conditions: 250 nM lapatinib pre-treatment, 10 nM HRG
Procedure: MCF-7 cells were seeded (onto 10 cm cell culture plates, VWR #353003) at a density of 5.0×10^6 cells and allowed to adhere for 16 hours. The cells were then transfected with 434 pmol of siRNA specific for MTK1 (Thermo Scientific ON-TARGETplus SMARTpool, Human MAP3K4 (4216) Cat #L-003789-00-0005) or non-targeting (NS) (ON-TARGETplus Non-targeting Pool Cat #D-001810-10-05) as control using lipofectamine 2000 according to manufacture recommendations. The cells were transfected with siRNA a second time 24 hours later using lipofectamine 2000 to enhance knockdown efficiency. Twenty-four hours after the second transfection the cells were detached using 0.25% trypsin (Invitrogen #15050-065). The cells were counted and seeded onto 12 well plates (VWR #62406-165) at a density of 0.7×10^6 cells per well for pH measurements and scratch assays or at density of 0.4×10^6 cells per well for proliferation assays. MTK1 knockdown efficiency was determined by immunoblot analysis using 150 μg whole cell lysate at 120 hours post-secondary transfection. Each condition was performed in triplicate and repeated a minimum of 3 times. Data shown for each condition represents n=3. Statistical analysis was performed as described above.
Scratch assays were performed in 12-well plates using MCF-7 cells at a density of 0.7×10^6 cells per well. […]

For `Cc1ccc([N+](=O)[O-])cc1S(=O)(=O)N(C)/N=C/c1cnc2ccc(Br)cn12` [PIK-75], the “Effect on cell motility and invasion” value (PI3K) is given as “inhibits cell motility and invasion”.
With “EGF: growth factor used to stimulate cells at 3.3 nM; activates EGFR and HER2 (NSDSECPLSHDGYCLHDGVCMYIEALDKYACNCVVGYIGERCQYRDLKWWELR; Epidermal growth factor; UniProt P01133 971-1023, looked up)” the “Extracellular acidification of cell culture media by stimulation” value (MCF-7 cells [1]; 10 nM HRG or 3.3 nM EGF, 24 hours, compared to vehicle) was “no effect; also recorded: did not induce extracellular acidification” and the “Cell proliferation on stimulation” value (MCF-7 cells [2]) was “proliferative response was detected; also recorded: induced cell proliferation”.
In the case of `C=C1[C@@H](C)[C@H]2[C@H](Cc3ccccc3)NC(=O)[C@]23[C@H](OC(C)=O)/C=C/[C@@](C)(O)C(=O)[C@@H](C)C/C=C/[C@H]3[C@@H]1O` [cytochalasin D], the “Effect on HRG-induced MTK1/HER3 association (in words)” value (MTK1/HER3 association; MCF-7 cells, 1 μg/ml cytochalasin D 30 minutes) is reported as “disrupted the communication or signaling between HER3/ErbB3 and MTK1; also recorded: inhibited HRG induced MTK1/HER3 association; also recorded: inhibited MTK1 and HER3 association”, the “Effect on HRG-induced MTK1/HER3 association (in words)” value (MTK1/HER3 association; MCF-7 cells, 1 μg/ml cytochalasin D 30 minutes, listed as Cytochalasin D) is reported as “diminished interaction between MTK1 and HER3” and the “Decrease of interaction between HER3 and MTK1” value (MTK1/HER3 association; MCF-7 cells, 1 μg/ml cytochalasin D 30 minutes, pY1289 HER3 immunoblot of MTK1 IP) is reported as roughly 60%. For the same compound, the “Effect on phosphorylation (activation) of HER3” value (HER3) was “not affected; also recorded: remained the same” and the “Effect on phosphorylation (activation) of HER3” value (HER3; listed as Cytochalasin D) was “no effect”.
With `CS(=O)(=O)CCNCc1ccc(-c2ccc3ncnc(Nc4ccc(OCc5cccc(F)c5)c(Cl)c4)c3c2)o1` [lapatinib] the “Effect on HRG-induced extracellular acidification” value (MCF-7 cells [1]; 250 nM lapatinib pre-treatment, 10 nM HRG 24 hours, media pH) was “significantly decreased; also recorded: inhibition of HRG-induced extracellular acidification”, the “Effect on HRG-induced MTK1/HER3 association” value (MTK1/HER3 association) was “effectively inhibited; also recorded: attenuates MTK1/HER3 association; also recorded: inhibited association of MTK1 and HER3” and the “Effect on HRG-induced MTK1/HER3 association” value (MTK1/HER3 association; listed as Lapatinib) was “decreased the interaction between HER3 and MTK1 in a dose dependent manner”. For the same compound, the “Effect on tyrosine phosphorylation of HER3 in lysates” value (HER3; MCF-7 cells, lapatinib 50-200 nM pre-treatment 1 hour, 10 nM HRG 12 minutes) was “effectively inhibited; also recorded: decreased” and the “Effect of lapatinib on HRG-induced cell migration” value (MCF-7 cells [3]) was “significantly decreased cell migration”.
